The values that follow come from ChEMBL document CHEMBL5131412, “Synthesis of unnatural morphinan compounds to induce itch-like behaviors in mice: Towards the development of MRGPRX2 selective ligands” (Bioorg Med Chem Lett, 2022).

Assay [1] concerns the target T1, Mas-related G-protein coupled receptor member B2 (Mus musculus) (UniProt Q3KNA1).
T1 sequence (whole entry): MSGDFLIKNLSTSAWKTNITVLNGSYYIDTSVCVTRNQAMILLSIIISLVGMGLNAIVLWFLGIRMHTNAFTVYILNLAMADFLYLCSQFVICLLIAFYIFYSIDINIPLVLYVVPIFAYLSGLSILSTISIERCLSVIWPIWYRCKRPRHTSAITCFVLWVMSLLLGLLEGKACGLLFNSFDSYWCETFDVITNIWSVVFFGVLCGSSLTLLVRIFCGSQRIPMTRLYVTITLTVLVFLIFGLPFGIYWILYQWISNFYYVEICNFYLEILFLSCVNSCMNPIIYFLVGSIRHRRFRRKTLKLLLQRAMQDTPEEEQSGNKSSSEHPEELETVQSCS
The assay can be described thus: Agonist activity at mouse Mrgprb2 expressed in HEK293 cells assessed as induction of G(o) dissociation by measuring luminescent decay at 32 uM by NanoBiT-G-protein dissociation assay. It counts as cell-based. Particulars: filed as agonist.

The target of assay [2] is T2, Mas-related G-protein coupled receptor member X2 (Homo sapiens) (UniProt Q96LB1).
T2 sequence (whole entry): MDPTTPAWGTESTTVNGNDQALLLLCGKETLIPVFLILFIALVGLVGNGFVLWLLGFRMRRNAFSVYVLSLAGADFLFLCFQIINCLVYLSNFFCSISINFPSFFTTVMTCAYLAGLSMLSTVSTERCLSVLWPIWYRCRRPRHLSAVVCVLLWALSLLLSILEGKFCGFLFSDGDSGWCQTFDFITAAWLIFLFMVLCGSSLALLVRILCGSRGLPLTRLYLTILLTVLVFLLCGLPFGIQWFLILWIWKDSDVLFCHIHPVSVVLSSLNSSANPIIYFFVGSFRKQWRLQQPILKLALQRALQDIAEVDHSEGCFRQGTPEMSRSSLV
The assay can be described thus: Agonist activity at MRGPRX2 (unknown origin) expressed in HEK293 cells assessed as induction of G(o) dissociation by measuring luminescent decay at 32 uM by NanoBiT-G-protein dissociation assay. The assay is classed as functional, cell-based. Particulars: filed as agonist.

For assay [3], the target named is T3, Mas-related G-protein coupled receptor member X2 (Homo sapiens, UniProt Q96LB1).
T3 sequence (Q96LB1 whole entry): T2 sequence (whole entry)
As to the kind of experiment: Agonistic activity at MRGPRX2 (unknown origin).

For assay [4], the species on record is Mus musculus. The assay can be described thus: Increase in number of nociceptive behaviors in mouse at 3 to 30 ug, it. It counts as functional. Particulars: dose 3-30 µg, DDE = dose-dependent effect.
The species named for assay [5] is Mus musculus. The assay can be described thus: Increase in number of scratching behaviors in mouse at 3 to 300 ug, id. The assay is classed as functional. Particulars: dose 3-300 µg, DDE = dose-dependent effect.
Assay [6] is filed under the species Mus musculus. As to the kind of experiment: Increase in number of nociceptive behaviors in mouse at 30 ug, it. The assay is classed as functional. Particulars: dose 30.0 µg.
Assay [7] addresses T1, Mas-related G-protein coupled receptor member B2 (Mus musculus). As to the kind of experiment: Agonist activity at mouse Mrgprb2 expressed in HEK293 cells assessed as induction of G(o) dissociation by measuring luminescent decay at 10 uM by NanoBiT-G-protein dissociation assay. Particulars: filed as agonist. It counts as cell-based.
Assay [8] concerns the target T2, Mas-related G-protein coupled receptor member X2 (Homo sapiens). As to the kind of experiment: Agonist activity at MRGPRX2 (unknown origin) expressed in HEK293 cells assessed as induction of G(o) dissociation by measuring luminescent decay at 10 uM by NanoBiT-G-protein dissociation assay. It counts as functional, cell-based. Particulars: filed as agonist.

The source made the active and inactive calls. No cut-off for these calls is given here. Bridge positions count the residues as written; N and C are the ends. Peptide text beside a SMILES is read from it.

Regarding `CN1CC[C@]2(c3cccc(O)c3)Cc3nc4ccccc4cc3C[C@@H]2C1`, the result in assay [1] and in assay [2] was Active. In assay [3], this compound had a 50% effective concentration (EC50) of 290 nM.
In the case of `CN1CC[C@]23Cc4nc5ccccc5cc4C[C@@]2(O)[C@H]1Cc1ccc(O)cc13`, the Activity entry in assay [4] and in assay [5] was “Dde” throughout. In addition, the outcome in assay [1], in assay [2] and in assay [6] was Active.
In the case of `C[C@@H](O)[C@@H]1NC(=O)[C@H](CCCCN)NC(=O)[C@H](Cc2c[nH]c3ccccc23)NC(=O)[C@H](Cc2ccccc2)NC(=O)[C@H](Cc2ccccc2)NC(=O)[C@H](CC(N)=O)NC(=O)[C@H](CCCCN)NC(=O)[C@@H](NC(=O)[C@@H]2CCCN2)CSSC[C@@H](C(=O)N[C@@H](CCCCN)C(=O)O)NC(=O)[C@H](CO)NC(=O)[C@H](CO)NC(=O)[C@H](Cc2ccccc2)NC1=O` (H-PCKNFFWKTFSSCK-OH; disulfide 2-13), the result in assay [7] and in assay [8] was Active.

Usually EC50 stands for the concentration needed to bring the measured effect to its halfway point.
